Experimental findings from ChEMBL document CHEMBL1145235, “Optimization of pyrrolidinone based HIV protease inhibitors” (Bioorg Med Chem Lett, 2005) are described below.

In experiment [1] the target is Human immunodeficiency virus type 1 protease (Human immunodeficiency virus 1, UniProt Q72874). The experiment can be described thus: Inhibition constant against HIV Protease.
Experiment [2] relates to MT4. Nature of the experiment: Antiviral inhibitory concentration against human immunodeficiency virus type 1 in MT-4 cell culture. The format is functional, cell-based.

SMILES strings stand for the structures.

`O=C(C[C@@H](Cc1ccccc1)C(=O)NC1c2ccccc2C[C@H]1O)CN1C(=O)[C@@H](Cc2ccccc2)C[C@@H]1Cc1ccc(OCCN2CCOCC2)cc1` (some centres undefined) gave a Ki in experiment [1] of 1.3 nM. In addition, in experiment [2], the IC50 is 960 nM. In the same order, the values of `O=C(C[C@@H](Cc1ccccc1)C(=O)NC1c2ccccc2C[C@H]1O)CN1C(=O)[C@@H](Cc2ccccc2)C[C@@H]1Cc1ccc(OCC(=O)N2CCOCC2)cc1` (some centres undefined) are 0.1 nM and 200 nM. In the same order, the values of `O=C(C[C@@H](Cc1ccc(OCCN2CCOCC2)cc1)C(=O)NC1c2ccccc2C[C@H]1O)CN1C(=O)[C@@H](Cc2ccccc2)C[C@@H]1Cc1ccccc1` (some centres undefined) are 0.14 nM and 83 nM. For the compound `O=C(C[C@@H](Cc1ccccc1)C(=O)NC1c2ccccc2C[C@H]1O)CN1C(=O)[C@@H](Cc2ccccc2)C[C@@H]1Cc1ccc(O)cc1` (some centres undefined), half-maximal inhibition in experiment [2] (IC50) was put at 200 nM. For the compound `CN1CCN(C(=O)COc2ccc(C[C@H](CC(=O)CN3C(=O)[C@@H](Cc4ccccc4)C[C@@H]3Cc3ccccc3)C(=O)NC3c4ccccc4C[C@H]3O)cc2)CC1` (some centres undefined), the Ki in experiment [1] came to 0.05 nM. In experiment [2], this compound displayed an IC50 of 130 nM. In the same order, the values of `O=C(C[C@@H](Cc1ccc(OCCO)cc1)C(=O)NC1c2ccccc2C[C@H]1O)CN1C(=O)[C@@H](Cc2ccccc2)C[C@@H]1Cc1ccccc1` (some centres undefined) are 0.02 nM and 94 nM.

For `O=C(C[C@@H](Cc1ccc(O)cc1)C(=O)NC1c2ccccc2C[C@H]1O)CN1C(=O)[C@@H](Cc2ccccc2)C[C@@H]1Cc1ccccc1` (some centres undefined), the Ki in experiment [1] amounted to 0.06 nM. In experiment [2], this compound displayed an IC50 of 320 nM.

In turn, `O=C(C[C@@H](Cc1ccc(OCC(=O)N2CCOCC2)cc1)C(=O)NC1c2ccccc2C[C@H]1O)CN1C(=O)[C@@H](Cc2ccccc2)C[C@@H]1Cc1ccccc1` (some centres undefined) yielded a Ki in experiment [1] of 0.02 nM. Also, in experiment [2], half-maximal inhibition (IC50) required 63 nM. For `COCCOCCOc1ccc(C[C@H](CC(=O)CN2C(=O)[C@@H](Cc3ccccc3)C[C@@H]2Cc2ccccc2)C(=O)NC2c3ccccc3C[C@H]2O)cc1` (some centres undefined), in experiment [1], the affinity, expressed as Ki, was 0.02 nM. Besides, the IC50 in experiment [2] came to 93 nM.

As for `NC(=O)COc1ccc(C[C@H](CC(=O)CN2C(=O)[C@@H](Cc3ccccc3)C[C@@H]2Cc2ccccc2)C(=O)NC2c3ccccc3C[C@H]2O)cc1` (some centres undefined), the affinity in experiment [1] corresponds to a Ki of 0.07 nM. Besides, the IC50 in experiment [2] was 360 nM.

The compound `O=C(C[C@@H](Cc1ccccc1)C(=O)NC1c2ccccc2C[C@H]1O)CN1C(=O)[C@@H](Cc2ccccc2)C[C@@H]1Cc1ccc(OCc2ccccc2)cc1` (some centres undefined) returned a Ki in experiment [1] of 0.13 nM. Besides, in experiment [2], the IC50 is 550 nM. In the same order, the values of `O=C(C[C@@H](Cc1ccccc1)C(=O)NC1c2ccccc2C[C@H]1O)CN1C(=O)[C@@H](Cc2ccccc2)C[C@@H]1Cc1ccccc1` (some centres undefined) are 0.05 nM and 720 nM.

In experiment [1], `O=C(C[C@@H](Cc1ccc(OCc2ccccc2)cc1)C(=O)NC1c2ccccc2C[C@H]1O)CN1C(=O)[C@@H](Cc2ccccc2)C[C@@H]1Cc1ccccc1` (some centres undefined) came in with a Ki of 0.11 nM. Besides, the IC50 in experiment [2] amounted to 920 nM. In the same order, the values of `O=C(C[C@@H](Cc1ccccc1)C(=O)NC1c2ccccc2C[C@H]1O)CN1C(=O)[C@@H](Cc2ccccc2)C[C@@H]1Cc1ccc(OCCO)cc1` (some centres undefined) are 0.3 nM and 480 nM. In experiment [1], `O=C(C[C@@H](Cc1ccc(OCc2ccccn2)cc1)C(=O)NC1c2ccccc2C[C@H]1O)CN1C(=O)[C@@H](Cc2ccccc2)C[C@@H]1Cc1ccccc1` (some centres undefined) displayed an inhibition constant (Ki) of 0.07 nM. This compound also yielded an IC50 in experiment [2] of 380 nM.
